Results as given in ChEMBL document CHEMBL2074269, “The interaction of n-tetraalkylammonium compounds with a human organic cation transporter, hOCT1” (J Pharmacol Exp Ther, 1999).

Target: T1, Solute carrier family 22 member 1 (Homo sapiens, UniProt O15245)
T1 sequence (O15245 whole entry): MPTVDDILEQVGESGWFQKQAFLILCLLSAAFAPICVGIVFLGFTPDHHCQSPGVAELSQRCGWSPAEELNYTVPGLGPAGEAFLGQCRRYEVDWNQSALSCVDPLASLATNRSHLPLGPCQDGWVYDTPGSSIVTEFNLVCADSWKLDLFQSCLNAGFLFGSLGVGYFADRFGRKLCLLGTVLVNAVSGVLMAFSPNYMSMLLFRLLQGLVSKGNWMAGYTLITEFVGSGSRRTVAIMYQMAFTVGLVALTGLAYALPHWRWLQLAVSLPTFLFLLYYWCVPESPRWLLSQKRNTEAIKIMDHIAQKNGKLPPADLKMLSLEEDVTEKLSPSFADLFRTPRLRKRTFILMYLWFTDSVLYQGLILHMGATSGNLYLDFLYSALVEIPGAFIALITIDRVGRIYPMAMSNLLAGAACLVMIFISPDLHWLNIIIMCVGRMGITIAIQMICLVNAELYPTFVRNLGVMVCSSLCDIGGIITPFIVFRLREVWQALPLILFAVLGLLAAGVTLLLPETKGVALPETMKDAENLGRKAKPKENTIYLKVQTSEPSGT
Assay type: functional, cell-based, HeLa

| Structure (SMILES) | IC50 |
| --- | --- |
| CCCC[N+](CCCC)(CCCC)CCCC [TETRABUTHYLAMMONIUM] | 52 µM |
| CCCCCC[N+](CCCCCC)(CCCCCC)CCCCCC [TETRAHEXYLAMMONIUM] | 3 µM |
| CCC[N+](CCC)(CCC)CCC [TETRAPROPYLAMMONIUM] | 90 µM |
